Assay results from the NIST ThermoML archive (doi:10.1021/je800248w).
± gives the expanded uncertainty stated by the source.

Legend:
[1] = molar heat capacity at constant pressure; conditions: 101.3 kPa, Liquid, Small sample (50 mg) DSC
[2] = molar heat capacity at constant pressure; xn = mol fraction of the nth substance listed; conditions: 101.3 kPa, Liquid, Small sample (50 mg) DSC, x1 = 1

Row | SMILES | molar heat capacity at constant pressure ([1]; 283.15 K) [J/K/mol] | molar heat capacity at constant pressure ([1]; 293.15 K) [J/K/mol] | molar heat capacity at constant pressure ([1]; 303.15 K) [J/K/mol] | molar heat capacity at constant pressure ([1]; 313.15 K) [J/K/mol] | molar heat capacity at constant pressure ([1]; 323.15 K) [J/K/mol] | molar heat capacity at constant pressure ([1]; 333.15 K) [J/K/mol] | molar heat capacity at constant pressure ([1]; 343.15 K) [J/K/mol] | molar heat capacity at constant pressure ([2]; 283.15 K) [J/K/mol] | molar heat capacity at constant pressure ([2]; 293.15 K) [J/K/mol] | molar heat capacity at constant pressure ([2]; 303.15 K) [J/K/mol] | molar heat capacity at constant pressure ([2]; 313.15 K) [J/K/mol] | molar heat capacity at constant pressure ([2]; 323.15 K) [J/K/mol] | molar heat capacity at constant pressure ([2]; 333.15 K) [J/K/mol] | molar heat capacity at constant pressure ([2]; 343.15 K) [J/K/mol]
1 | CCOS(=O)(=O)[O-].CCn1cc[n+](C)c1 [1-ethyl-3-methylimidazolium ethyl sulfate] | 365 ± 30 | 371 ± 30 | 380 ± 31 | 386 ± 31 | 392 ± 32 | 397 ± 32 | 403 ± 33 |  |  |  |  |  |  | 
2 | CCn1cc[n+](C)c1.O=C([O-])C(F)(F)F [1-ethyl-3-methylimidazolium trifluoroacetate] | 308 ± 25 | 313 ± 25 | 320 ± 26 | 324 ± 26 | 328 ± 27 | 332 ± 27 | 337 ± 27 |  |  |  |  |  |  | 
3 | CCn1cc[n+](C)c1.O=S(=O)([O-])C(F)(F)F [1-ethyl-3-methylimidazolium trifluoromethanesulfonate] | 353 ± 29 | 358 ± 29 | 366 ± 30 | 371 ± 30 | 376 ± 31 | 380 ± 31 | 384 ± 31 |  |  |  |  |  |  | 
4 | O [water] | 75 ± 6 | 75 ± 6 | 75 ± 6 | 75 ± 6 | 75 ± 6 | 75 ± 6 | 75 ± 6 |  |  |  |  |  |  | 
5 | O [water] + CCOS(=O)(=O)[O-].CCn1cc[n+](C)c1 |  |  |  |  |  |  |  | 75 ± 6 | 75 ± 6 | 75 ± 6 | 75 ± 6 | 75 ± 6 | 75 ± 6 | 75 ± 6
6 | O [water] + CCn1cc[n+](C)c1.O=C([O-])C(F)(F)F |  |  |  |  |  |  |  | 75 ± 6 | 75 ± 6 | 75 ± 6 | 75 ± 6 | 75 ± 6 | 75 ± 6 | 75 ± 6
7 | O [water] + CCn1cc[n+](C)c1.O=S(=O)([O-])C(F)(F)F |  |  |  |  |  |  |  | 75 ± 6 | 75 ± 6 | 75 ± 6 | 75 ± 6 | 75 ± 6 | 75 ± 6 | 75 ± 6
